pIC50: −log10 of the molar value. Where a name gives a salt, the structure may show the parent alone.
How the values were obtained:
[1] = Hydrolysis of prodrug in plasma; format: in vitro ADME
Experimental: (§1) 20 mg/ml were obtained in 20% Captisol, allowing for intravenous delivery in the mouse stroke model.

h12/15-LOX = h12/15-LOX (Homo sapiens (Human), UniProt P16050); assay: 12/15-LOX enzyme inhibition IC50 assay (Examples 1 and 2); format: biochemical; settings: for Emax: h12/15-LOX, read-out: Max % inhibition
Experimental: Enzyme was then added to the cuvettes. […] The % inhibition for each test compound concentration were calculated as follows: […]

[2] = Aqueous solubility of exemplified compounds (Example 3); format: physicochemical; settings: for Sol: aqueous solubility
[3] = test system: experimental stroke model in mice (MCAO); assay: Mouse stroke model, filament middle cerebral artery occlusion (MCAO), infarct size; format: in vivo
Experimental: Studies were carried out in experimental stroke model in mice, using the filament model of middle cerebral artery occlusion (MCAO). For intraperitoneal delivery, compounds were dissolved in DMSO. A number of exemplified compounds were able to reduce infarct size when given at a dosage of 40 mg/kg.
40 mg/kg cmpd. 1 were given i.p. at time of reperfusion. Infarct size was measured at 24 hours after 60 minutes MCAO.
MCAO (Experimental Middle Cerebral Artery Ischemia and Functional Recovery) experiment: 40 mg/kg of compound delivered intraperitoneally 2 h post reperfusion, 60 minutes MCAO, sacrifice at 24 h, infarct size determined by TTC staining.

[4] = Solubility in formulation vehicles (Solutol HS-15/PEG400, Captisol); format: physicochemical; settings: for solution concentration achieved: 10% Solutol/90% PEG400; for solubility: aqueous with cosolvent or surfactant or cyclodextrin
Experimental: Combinations of Solutol HS-15 (also known as Kolliphor HS-15) with PEG400 provided a good vehicle to solubilize the tested compounds. Specifically, 10% Solutol/90% PEG400 was used to prepare 20 mg/ml solutions of compound 1, compound 44, and compound 32. 10% Solutol/15% H2O/[…] led to 10 mg/ml solutions of the tested compounds.
as §1

[5] = In vivo conversion of prodrug to parent compound
Experimental: FIG. 1 contains chemical schemes showing in vivo conversion of prodrug compounds 51, 52, 53 to their parent compounds 22, 1, and 1, respectively.
as §1

[6] = Metabolic stability of exemplified compounds (Example 4); format: in vitro ADME

h12/15-LOX, sequence (P16050 whole entry): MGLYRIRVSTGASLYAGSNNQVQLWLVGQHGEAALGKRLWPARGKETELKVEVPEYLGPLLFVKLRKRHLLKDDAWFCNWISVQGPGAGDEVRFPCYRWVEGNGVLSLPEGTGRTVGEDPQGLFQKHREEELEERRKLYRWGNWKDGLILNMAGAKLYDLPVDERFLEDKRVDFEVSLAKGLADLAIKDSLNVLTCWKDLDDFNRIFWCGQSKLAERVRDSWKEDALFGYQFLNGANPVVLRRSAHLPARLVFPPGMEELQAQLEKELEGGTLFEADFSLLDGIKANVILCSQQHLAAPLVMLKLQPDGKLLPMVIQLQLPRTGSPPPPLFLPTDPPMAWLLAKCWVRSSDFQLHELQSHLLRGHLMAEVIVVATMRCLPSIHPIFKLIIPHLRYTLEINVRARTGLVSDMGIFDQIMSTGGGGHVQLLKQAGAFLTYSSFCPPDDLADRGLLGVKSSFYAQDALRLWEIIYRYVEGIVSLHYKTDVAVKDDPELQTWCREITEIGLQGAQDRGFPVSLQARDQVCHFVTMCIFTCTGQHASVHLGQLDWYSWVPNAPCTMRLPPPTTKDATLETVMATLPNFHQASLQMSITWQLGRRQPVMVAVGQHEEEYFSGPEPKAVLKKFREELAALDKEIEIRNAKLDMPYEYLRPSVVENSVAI

Structure (SMILES): N#Cc1nc(-c2cc(Cl)cc(Cl)c2Cl)oc1NCCCCCOP(=O)(O)O [Compound 51, 5-((4-cyano-2-(2,3,5-trichlorophenyl)oxazol-5-yl)amino) pentyl dihydrogen phosphate]
- hydrolysis in plasma [1]: susceptible to hydrolysis in plasma
- pIC50 (h12/15-LOX): < 4.70
- aqueous solubility versus parent compound [2]: high aqueous solubility versus parent compound 22

Structure (SMILES): [2H]C([2H])([2H])Nc1oc(-c2cc(Cl)cc(Cl)c2Cl)nc1C#N [Compound 44, 5-((methyl-d3)amino)-2-(2,3,5-trichlorophenyl) oxazole-4-carbonitrile]
- infarct size reduction ([3]; 40 mg/kg intraperitoneally 2 h post reperfusion, 60 minutes MCAO, sacrifice at 24 h, TTC staining): 29.6%
- solution concentration achieved [4]: 20 mg/mL
- pIC50 (h12/15-LOX): 7.05
- Emax (h12/15-LOX): 91%

Structure (SMILES): CN(C)CCCOC(=O)N(C)c1oc(-c2cc(Cl)cc(Cl)c2Cl)nc1C#N [Compound 52, 3-(dimethylamino) propyl (4-cyano-2-(2,3,5-trichlorophenyl)oxazol-5-yl)(methyl) carbamate hydrochloride]
- infarct size reduction ([3]; 40 mg/kg i.v. in 50% Captisol, immediately after reperfusion, 24 h, hydrochloride): 31.7%
- infarct size reduction ([3]; 40 mg/kg i.v. in 50% Captisol, immediately after reperfusion, 24 h, listed as Cmpd. 52, hydrochloride): 31.7%
- in vivo processing of prodrug [5]: processed to the parent molecule, compound 1
- solubility ([4]; 20% Captisol): 20 mg/mL
- solubility ([4]; 50% Captisol solution): 27 mg/mL
- pIC50 (h12/15-LOX): 5.85

Structure (SMILES): N#Cc1nc(-c2cc(Cl)cc(Cl)c2Cl)oc1NCCCCCO [Compound 22, 5-((5-Hydroxypentyl)amino)-2-(2,3,5-trichlorophenyl)oxazole-4-carbonitrile]
- pIC50 (h12/15-LOX): 6.29
- Emax (h12/15-LOX): 82%
- Sol [2]: + (“+” < 10 μM)
- Extr (EH) ([6]; Human liver microsomes): ** (“**” 50-100%)
- microsomal CLint ([6]; Human liver microsomes): 20 to 100 µL/min/mg
- Extr (EH) ([6]; Mouse liver microsomes): * (“*” <50%)
- microsomal CLint ([6]; Mouse liver microsomes): < 20 µL/min/mg
- Extr (EH) ([6]; Rat liver microsomes): * (“*” <50%)
- microsomal CLint ([6]; Rat liver microsomes): 20 to 100 µL/min/mg

Structure (SMILES): COCCOCCNc1oc(-c2cc(Cl)cc(Cl)c2Cl)nc1C#N [Compound 32, 5-((2-(2-Methoxyethoxy)ethyl)amino)-2-(2,3,5-trichlorophenyl) oxazole-4-carbonitrile]
- infarct size reduction ([3]; 40 mg/kg intraperitoneally 2 h post reperfusion, 60 minutes MCAO, sacrifice at 24 h, TTC staining, listed as Cmpd. 32): 31.8%
- infarct size reduction ([3]; 40 mg/kg intraperitoneally 2 h post reperfusion, 60 minutes MCAO, sacrifice at 24 h, TTC staining, listed as compound 32): 31.8%
- solution concentration achieved [4]: 20 mg/mL
- pIC50 (h12/15-LOX): 6.21
- Emax (h12/15-LOX): 96%
- Sol [2]: ++ (“++” 10-20 μM)
- Extr (EH) ([6]; Human liver microsomes): * (“*” <50%)
- microsomal CLint ([6]; Human liver microsomes): < 20 µL/min/mg
- Extr (EH) ([6]; Mouse liver microsomes): * (“*” <50%)
- microsomal CLint ([6]; Mouse liver microsomes): < 20 µL/min/mg
- Extr (EH) ([6]; Rat liver microsomes): * (“*” <50%)
- microsomal CLint ([6]; Rat liver microsomes): < 20 µL/min/mg

— patent US20240336642A1 (The General Hospital Corporation, priority 2021, published 2024)
